This is an account of results in patent publication US20210213135A1 (Purdue Research Foundation, priority 2018, published 2021).

Test [1] concerns Swiss Webster fracture-bearing mice (healed femur). Kind of test: postmortem 4 point bend of the healed femur. In kind it is in vivo. From the text: All in vivo data included herein are from Swiss Webster mice. All mice received an osteotomy on their right femur and received subcutaneous drug administration daily for either 2,3 or 4 weeks, or 17 days, as indicated, for each compound. 1× concentration represents 1 nmol/day, 10× represents 10 nmol/day, 100× represents 100 nmol/day most studies have an n of 5.
The term “Peak Load” means a postmortem 4 point bend of the healed femur. Peak load represents the maximum force the healed femur withstood before it refractured.
The targeted conjugates were synthesized using standard Fmoc solid-phase peptide synthesis, as described above. To ensure the conjugates' activity, mouse pre-osteoblast ([…]) cells were treated with the targeted and untargeted compounds for three days at concentrations from 1 pM to 100 nM. After three days of treatment, the cells were harvested, and the RNA was purified from the cells. Expression levels of ALP, RUNx2 (transcription factor for osteoblast differentiation), osterix (OSX), osteopontin (OPN), collagen 1A (Col-1A), OPG, RANKL, sclerostin gene (SOST), and OC were quantified via quantitative reverse transcription polymerase chain reaction (RT-qPCR). Once the biological activity of the conjugates was confirmed, they were tested in vivo in a fracture model. Aseptic surgical techniques were used to place a 23-gage needle as in intramedullary nail in the femur of anesthetized, 12-week-old Swiss Webster mice for internal fixation before fracture. Femur fractures were induced using a drop weight fracture device from RISystem. The mice received buprenorphine for three days post fracture. The mice were dosed subcutaneously each day for three weeks or 17 days. Fracture healing was assessed using microCT (Scanco Medical Ag). Morphometric parameters were quantified in the 100 widest slices of the fracture callus. Trabecular thickness (Tb.Th.), trabecular spacing (Tb.Sp.), total volume (TV), and volume of calcified callus (BV) were calculated. Fractured femurs were tested for strength in a four-point bend to failure using an Electro Force TestBench (TA Instruments). Lower supports were 10 mm apart on the anterior face of the femur in contact with the proximal and distal diaphysis. Upper supports were 4 mm apart and spanned the entire fracture callus on the diaphysis. Force was applied from the posterior face of the femur with a displacement rate of 0.3 mm/sec. Peak load, yield load, stiffness, displacement post yield, work to fracture, and deformation data were generated. Statistical analysis was performed using a two-way analysis of variance (ANOVA) and a Tukey post-hoc analysis with significance reported at the 95% confidence level. All animal experiments were performed in accordance with protocols approved by Purdue University's Institutional Animal Care and Use Committee (IACUC).

The test system of test [2] is Swiss Webster fracture-bearing mice (fracture callus). Description: micro CT of the fracture callus in the femur fracture model. It counts as in vivo.
Where [3] appears, read: 2 weeks, 1, 10 and 100 nmol/day.
[4] abbreviates: 17 days, 0.1, 1 and 10 nmol daily s.c., n=5.
Setting [5] is: 3 weeks, 1, 10 and 100 nmol daily s.c., n=5.
The mark [6] stands for this setting: 3 weeks, 1 and 10 nmol daily s.c., n=10.

Primed or numbered codes have the meaning given here. Where no end group is shown, it is not given here. [ ]: non-standard residue; d: D form. mp4″ = 4 mini PEG linker (mini-PEG spacer); minipeg = minipeg spacer

Take “BFP-D10: SEQ ID NO: 1, bone forming peptide conjugated with 10 aspartate acids: DDDDDDDDDDGQGFSYPYKAVFSTQ (BFP D10)”: in test [1] (after 2 weeks, 100 nmol/day (100×), compared to PBS), the “Peak load of fractured femurs” value is given as “obtained the maximum peak load”. Also, in test [2] (setting [3]), the BV/TV entry is on record as “dose dependent manner” and the TbSp entry was “dose dependent manner”.
In the case of “PHSRN_mp4_(D)E10: SEQ ID NO: 28, fibronectin peptide PHSRN with (D)e10 targeting ligand attached to N terminus via minipeg spacer (H[dE][dE][dE][dE][dE][dE][dE][dE][dE][dE][mp4″]PHSRN)”, in test [1] (setting [4]), the “Max load (peak load)” value was “raises bone strength” and the Work to fracture result is on record as “raises bone strength”. In test [2] (setting [4]), the “BV (bone volume)” value was “raises bone mineralization” and the BV/TV result is given as “raises bone density”.
Take “CBM(1-19)_D10: SEQ ID NO: 31, truncated version (1-19) of the collagen binding motif of human osteopontin targeted by D10 (HDDDDDDDDDDGLRSKSKKFRRPDIQYPDA; CBM(1-19)-D10 collagen binding motif)”: the “Max load (peak load)” value in test [1] (setting [5]) is on record as “improves bone strength”. In addition, in test [2] (setting [5]), the BV/TV result is reported as “raises bone density” and the “Tbth (trabecular thickness)” value is listed as “raises bone quality”.
Turning to “substance P D10: SEQ ID NO: 4, substance P with 4 mini PEG linker and conjugated with 10 aspartate acids (DDDDDDDDDDRPKPQQFFGLM; 4 mini PEG linker; substance P 4 mini PEG D10 with; (10)..(11) 4 mini PEG linker)”, in test [1] (4 weeks, printed dose 0×), the “Peak load (max load) of healed femur” value is on record as 30-35 Newtons. The BV/TV result in test [2] (4 weeks, 1, 10 and 100 nmol/day) is “dose dependent manner”.
In the case of “DGEA_mp4_(D)E10: SEQ ID NO: 24, DGEA with Serine and Proline on C terminus, 4 minipeg spacers and ten d glutamic acids (H[dE][dE][dE][dE][dE][dE][dE][dE][dE][dE][minipeg][minipeg][minipeg][minipeg]DGEASP)”, in test [1] (setting [5]), the “Max load (peak load)” value was “raises bone strength” and the Work to fracture entry is “raises bone strength”. In test [2] (setting [5]), the “BV (bone volume)” value was “raises bone mineralization” and the BV/TV result is reported as “raises bone density”.
As for “SPARC113_mp4_(D)E10: SEQ ID NO: 30, SPARC residues 113-127 conjugated via 4 minipegs with 10 glutamic acids (H[dE][dE][dE][dE][dE][dE][dE][dE][dE][dE][mp4″]TLEGTKKGHKLHLDY)”, in test [1] (setting [4]), the “Max load (peak load)” value is “raises bone strength” and the Work to fracture result is “raises bone strength”. Besides, in test [2] (setting [4]), the “BV (bone volume)” value is “raises bone mineralization” and the BV/TV result is reported as “raises bone density”.
In the case of “LN2_P3_mp4_(D)E10: SEQ ID NO: 27, laminin a2 motif DLTIDDSYWYRI with N terminally attached minipeg 4 spacer and targeting ligand (H[dE][dE][dE][dE][dE][dE][dE][dE][dE][dE][mp4″]DLTIDDSYWYRI)”, in test [1] (setting [4]), the “Max load (peak load)” value was “raises bone strength” and the Work to fracture entry is “raises bone strength”. Besides, in test [2] (setting [4]), the “BV (bone volume)” value is listed as “raises bone mineralization” and the BV/TV result is “raises bone density”.
With “CTC_mp4_(D)E10: SEQ ID NO: 21, CTC linked via 4 minipegs to 10 (D) glutamic acids (H[dE][dE][dE][dE][dE][dE][dE][dE][dE][dE][minipeg][minipeg][minipeg][minipeg]IAGVGGEKSGGF)”, in test [1] (setting [6]), the “Max load (peak load)” value was “raises bone strength” and the Work to fracture result was “raises bone strength”. The BV/TV entry in test [2] (setting [6]) is “raises bone density”.
